Measured values: patent publication US11352405B2, “GLP-1/glucagon receptor agonists in the treatment of fatty liver disease and steatohepatitis” (SANOFI, priority 2017, dated 2022)
Starred links: 1 amine or outer side, 2 acyl side, 3 side chain; linkers in the order of their positions; H or OH if unused. Non-standard residues stand in square brackets, D forms with d. Groups on a side chain read outwards from the residue. No end group written: not given here. Stea = stearoyl, (S)-4-carboxy-4-octadecanoylamino-butyryl on Lys via γGlu; γGlu = O=C(O)[C@H](CCC(=O)[*:2])N[*:1]

What was measured:
[1] = test system: mice with AMLN-diet-induced NASH; test: murine diet-induced NASH model (AMLN diet), eight-week treatment; format: in vivo, C57BL/6J mice
Description: Test compounds were investigated in a mouse model of NASH (murine diet-induced NASH model) as described in Kristiansen et al (World Journal of Hepatology 2016, vol. 8, pp. 673-684). C57BL/6J mice were given ad libitum access to a diet (D09100301, Research Diet, United States) high in fat (40%, of these 18% trans-fat), carbohydrates (40%, of these 20% fructose) and cholesterol (2%) that has previously been described as AMLN diet ([…] et al., Am J Physiol Gastrointest Liver Physiol 2013, vol. 305, pp. G483-G495). A control group was kept on regular rodent chow (Altromin 1324, Brogaarden, Denmark). After 26 weeks on the diet, a liver biopsy was performed for histological assessment of NASH and fibrosis at baseline. For this purpose, about 100 mg liver tissue were collected from the left lateral lobe, fixed overnight in 4% paraformaldehyde, paraffin-embedded and sectioned (3 μm thickness). For histological assessment, sections were stained with hematoxylin, eosin or Sirius Red and followed by analysis with Visiomorph software (Visiopharm, Denmark). Histological scoring was performed by a pathologist blinded to the study. NAFLD activity score and fibrosis score were determined according to the clinical criteria outlined by Kleiner et al (Hepatology 2005, […], pp. 1313-1321). Animals were randomized into different treatment groups according to body weight and extent of fibrosis. Treatment period was eight weeks during which animals remained on the AMLN diet. Compounds were given by once-daily or twice-daily subcutaneous injection. Vehicle-treated animals on AMLN diet and non-treated animals on regular rodent chow were included as controls. Group sizes were between 8 and 14 animals. After treatment, terminal liver samples were collected and analysed as for the pre-biopsy. Dual-agonistic GLP1R/GCGR agonistic peptides were investigated in a murine model of NASH as described in the methods section. Treatment duration was eight weeks over which animals remained on the NASH-inducing AMLN diet. The GLP1R-specific agonist liraglutide (SEQ ID NO.: 4) was included as a reference compound. In the diet-induced murine NASH model, compounds were administered at the following doses (all via subcutaneous injections): SEQ ID NO.: 2 10 μg/kg b.i.d., SEQ ID NO.:3 30 μg/kg q.d. in comparison to liraglutide (SEQ ID NO.: 4) at 200 μg/kg q.d., SEQ ID NO.: 1 10 μg/kg b.i.d. or 30 μg/kg b.i.d. in comparison to liraglutide (SEQ ID NO.: 4) at 100 μg/kg b.i.d.

human GLP-1 receptor = human GLP-1 receptor (Homo sapiens, UniProt P43220); test: binding to human GLP-1 receptor
human GLP-1 receptor, sequence (P43220 24-463): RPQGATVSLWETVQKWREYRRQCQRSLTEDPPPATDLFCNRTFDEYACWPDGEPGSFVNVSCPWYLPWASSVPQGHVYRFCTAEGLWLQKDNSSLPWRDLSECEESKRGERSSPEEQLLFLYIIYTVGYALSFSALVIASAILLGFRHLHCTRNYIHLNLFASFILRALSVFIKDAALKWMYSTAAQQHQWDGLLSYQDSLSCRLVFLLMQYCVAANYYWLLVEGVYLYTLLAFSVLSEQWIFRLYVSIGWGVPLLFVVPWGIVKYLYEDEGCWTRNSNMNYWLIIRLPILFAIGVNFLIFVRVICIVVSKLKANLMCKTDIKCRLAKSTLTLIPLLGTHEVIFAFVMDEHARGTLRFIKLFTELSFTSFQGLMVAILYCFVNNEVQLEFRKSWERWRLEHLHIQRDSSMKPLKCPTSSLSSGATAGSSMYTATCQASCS

human glucagon receptor = human glucagon receptor (Homo sapiens, UniProt P47871); test: binding to human glucagon receptor
human glucagon receptor, sequence (P47871 26-477): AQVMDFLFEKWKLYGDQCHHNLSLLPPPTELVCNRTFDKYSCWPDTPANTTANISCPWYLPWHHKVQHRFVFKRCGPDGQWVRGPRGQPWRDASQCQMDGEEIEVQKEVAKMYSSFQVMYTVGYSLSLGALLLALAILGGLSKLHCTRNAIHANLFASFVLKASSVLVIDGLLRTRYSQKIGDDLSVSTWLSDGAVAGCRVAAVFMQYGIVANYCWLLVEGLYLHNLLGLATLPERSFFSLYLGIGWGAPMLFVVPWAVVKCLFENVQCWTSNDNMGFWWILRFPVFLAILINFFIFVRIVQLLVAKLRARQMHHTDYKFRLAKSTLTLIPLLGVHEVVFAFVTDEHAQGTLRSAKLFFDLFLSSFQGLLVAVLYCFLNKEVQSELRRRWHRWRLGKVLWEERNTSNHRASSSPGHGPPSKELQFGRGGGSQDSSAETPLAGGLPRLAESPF

[2] = 10 μg/kg b.i.d. s.c., eight weeks, AMLN diet mice (FIG. 1A study)
[3] = 10 μg/kg b.i.d. s.c., eight weeks, vehicle increased by 0.2 points
[4] = 30 μg/kg twice daily s.c., eight weeks, AMLN diet mice (FIG. 3A study)

Q: With “H-dS-Q-G-T-F-T-S-D-L-S-K-Q-K(γE-Palm)-DSRRAQDFIEWLKNGGPSSGAPPPS-NH2 (HXQGTFTSDLSKQKDSRRAQDFIEWLKNGGPSSGAPPPS; D-Ser1; K14 γE-palmitoyl; C-terminal amide; Exendin-4 analogue; MOD_RES (2)..(2) Xaa is D-Ser; MOD_RES (14)..(14) Lys is functionalized at the amino side chain group as Lys((S)-4-carboxy-4-hexadecanoylamino-butyryl); MOD_RES (39)..(39) amidated C-terminus) [SEQ ID NO.: 2, exendin-4 derivative of formula A, dual GLP-1/glucagon receptor agonist]” as the substance, how does the “mean fibrosis stage after treatment” value ([1]; 10 μg/kg b.i.d. s.c., after eight weeks, baseline 1.2, vehicle group did not change) read?
A: The value was 0.6.

Q: What about the “components of NAS (steatosis, inflammation and hepatocyte ballooning scores)” value ([1]; 10 μg/kg b.i.d. s.c., eight weeks (FIG. 1D)) of the same substance?
A: The value was “reduction in score was seen for all three components of NAS”.

Q: And the “weight loss vs vehicle” value [1, 2]?
A: Its value is 4.9 grams.

Q: And the “weight loss vs vehicle, % of body weight at baseline” value [1, 2]?
A: Its value is 13.5%.

Q: What about the “weight loss vs baseline” value ([1]; 10 μg/kg b.i.d. s.c., eight weeks, AMLN diet mice (FIG. 1A study), vehicle gained 2.1 grams) of the same substance?
A: The value was 2.8 gram.

Q: What about the “weight loss vs baseline (% of body weight)” value ([1]; 10 μg/kg b.i.d. s.c., eight weeks, AMLN diet mice (FIG. 1A study), vehicle gained 5.6%) of the same substance?
A: The value was 7.7%.

Q: What about the “reduction in NAFLD activity score (NAS) vs baseline” value [1, 3] of the same substance?
A: Its value is 2.3 points.

Q: Which results are given for “H-dS-Q-G-T-F-T-S-D-L-S-K-Q-K(γE-Stea)-DEQLAKDFIEWLKAGGPSSGAPPPS-NH2 (H[dS]QGTFTSDLSKQK([γGlu-Stea])DEQLAKDFIEWLKAGGPSSGAPPPS-NH2) [SEQ ID NO.: 3, exendin-4 derivative of formula A, dual GLP-1/glucagon receptor agonist]”?
A: weight loss vs baseline ([1]; 30 μg/kg q.d. s.c., eight weeks, AMLN diet mice (FIG. 2A study), vehicle gained 1.1 grams): 3.9 grams; weight loss vs baseline (% of body weight) ([1]; 30 μg/kg q.d. s.c., eight weeks, AMLN diet mice (FIG. 2A study), vehicle gained 3.0%): 10.5%; change in mean fibrosis score vs baseline ([1]; 30 μg/kg q.d. s.c., eight weeks, vehicle increased by 0.1 points): remained unchanged; decrease in NAS vs baseline ([1]; 30 μg/kg q.d. s.c., eight weeks, vehicle increased by 0.8 points, p<0.001 vs vehicle, p<0.05 vs liraglutide): 1.6 points

Q: “H-dS-Q-G-T-F-T-S-D-L-S-K-Q-K(γE-Palm)-ESKAAQDFIEWLKAGGPSSGAPPPS-NH2 (HXQGTFTSDLSKQKESKAAQDFIEWLKAGGPSSGAPPPS; D-Ser1; K14 γE-palmitoyl; C-terminal amide; Exendin-4 analogue; MOD_RES (2)..(2) Xaa is D-Ser; MOD_RES (14)..(14) Lys is functionalized at the amino side chain group as Lys((S)-4-carboxy-4-hexadecanoylamino-butyryl); MOD_RES (39)..(39) amidated C-terminus) [SEQ ID NO.: 1, exendin-4 derivative of formula A, dual GLP-1/glucagon receptor agonist]” was tested. Which “decrease in mean NAS vs baseline” value [1, 3] did it give?
A: The value was 2.0 points.

Q: What about the “weight loss vs baseline” value ([1]; 10 μg/kg twice daily s.c., eight weeks, AMLN diet mice (FIG. 3A study), vehicle gained 0.5 grams) of the same substance?
A: Its value is 3.0 grams.

Q: And the “weight loss vs baseline (% of body weight)” value ([1]; 10 μg/kg twice daily s.c., eight weeks, AMLN diet mice (FIG. 3A study), vehicle gained 1.3%)?
A: The value was 8.5%.

Q: And the “decrease in mean NAS vs baseline” value ([1]; 30 μg/kg b.i.d. s.c., eight weeks, vehicle increased by 0.2 points, p<0.05 vs liraglutide)?
A: Its value is 1.9 points.

Q: What about the “weight loss vs baseline” value [1, 4] of the same substance?
A: The value was 3.9 grams.

Q: What about the “weight loss vs baseline (% of body weight)” value [1, 4] of the same substance?
A: Its value is 11.4%.

Q: What about the “change in fibrosis vs baseline” value ([1]; both doses, 10 and 30 μg/kg b.i.d. s.c., eight weeks (FIG. 3E)) of the same substance?
A: Its value is “trend to an improvement in fibrosis”.

Q: And the “binding to human GLP-1 receptor” value (human GLP-1 receptor)?
A: The value was “good binding”.

Q: What about the “binding to human glucagon receptor” value (human glucagon receptor) of the same substance?
A: The value was “good binding”.
